According to patent US5147876A, “2,6-di,2,4,6-, 2,5,6-tri and 2,4,5,6-tetra-substituted pyrimidines, their pharmaceutically acceptable salts, pharmaceutical compositions containing same and their use in the treatment of neurological diseases” (Mitsui Petrochemical Industries, Ltd., priority 1988, dated 1992):

Assays:
[1] = system: neuro-2a (mouse neuroblastoma cells); assay: Action on neuro-2a: proportion of cells containing outgrown neurites; type: cell-based; settings: mean ± S.D.
Procedure, shortened: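 Read-out is the percentage of neurite-bearing cells (neurite ≥2× long cell diameter), counted microscopically over more than 200 cells per well. Before fixation and staining, neuro-2a cells (1,000/well, DMEM + 10% FCS) were cultured for one day at 37 °C; up to six compound concentrations, three runs each.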

[2] = system: rats with crushed sciatic nerves; assay: Twitch tension of hind paw in rats with crushed sciatic nerves; type: in vivo, rat (male Wistar)
Procedure: (§1) The therapeutic effect of the compound of the invention was tested on rats having crushed sciatic nerves as a model of peripheral nervous disorder using (1) a change in the action of the hind paw with the crushed sciatic nerves and (2) a change in the weight of the muscle as an index of the course of degeneration and regeneration of peripheral nerves.
(§2) In the experiment, male Wistar rats (6 weeks old), seven per group, were used. The sciatic nerves were crushed by a method similar to the method of Yamatsu et al. (see Kiyomi Yamatsu, Takenori Kaneko, Akifumi Kitahara and Isao Ohkawa, Journal of Japanese Pharmacological Society, 72, 259-268 (1976) and the method of Hasegawa et al. (see Kazuo Hasegawa, Naoji Mikuni and Yutaka Sakai, Journal of Japanese Pharmacological Society, 74, 721-734 (1978). Specifically, under anesthesia with pentobarbital (40 mg/kg, i.p.), the left side sciatic nerve was exposed at the femur, and a specific site of the exposed sciatic nerve was crushed for 30 seconds by using a hemostat. After the crushing, the operation site was immediately sutured. Thereafter, vincristine known to retard the regeneration of the peripheral nerve was intraperitoneally administered in a dose of 100 g/kg once a week.
(§3) Compounds of the invention were selected as test drugs, and administered intraperitoneally once a day from the day of crushing to 30th day from then. To a control group, only 0.9 % saline was administered.
Twitch tension, which is a transient tension incident to contraction of the dominated muscles that occurs by electrical stimulation or the like of motor nerves, as is the case with the interdigit distance to be described, is considered to reflect functional changes of the nerves and muscles.
[…] J. Neurosci. Methods, 19, 259 (1987)]. Specifically, the hair on the hind paw of rats was shaven, and coated with Cardiocream (a product of Nihon Denko K.K.). Then, to the skin of the hind paw, electrodes with an alligator were attached The cathode was attached to the rear portion of the trochiter, and the […], to a site 1 cm rearwardly of the […] electrode and 1 cm toward its back. The rat was fixed on its back, and the hind paw to be measured was fixed perpendicularly. A silk yarn, about 20 cm long, was connected at one end to the third efferent toe joint of the hind paw to be measured and at the other end to a tension transducer. Isotonic contractions of the third muscle digitus flexus were recorded on a polygraph. Electrical stimulation was effected at a voltage of 100V for a continuous duration of 1 msec. with rectangular waves at a frequency of 2 Hz. The static tension was 15 to 30 g, and 10 stimulations were repeated 3 times with intervals of 15 seconds. The contracting force was expressed as tension (g). From the measured values of both paws, the recovery ratio (%, left/right) of the contracting force of the paw with crushed nerves was calculated.

[3] = system: rats having crushed sciatic nerves; assay: Interdigit distance in rats with crushed sciatic nerves; type: in vivo, rat (male Wistar); settings: 30 mg/kg, i.p.
Procedure: as §1
as §2, with “Thereafter, vincristine known to retard the regeneration of the peripheral nerve was intraperitoneally administered in a dose of 100 g/kg once a week.” left out
By a method similar to the method of Hasegawa [Hasegawa, K., Experientia, 34, 750-751 (1978)], the distance between the first and fifth digits of the hind paw was measured.
The ratio of the measured distance to the interdigit distance in a normal hind paw was calculated and expressed in percentage (%). […]

[4] = system: rats with lesioned nigral dopaminergic nerve cells; assay: Motor imbalance (methamphetamine-induced rotation) after 6-hydroxydopamine lesion and transplantation of fetal cerebral cells; type: in vivo, rat (female Wistar)
Procedure: Nigral dopaminergic nerve cells at the left side of the brain of 4-week old female Wistar rats (body weight 100 g) were lesioned by injecting a very small quantity of 6-hydroxydopamine. […] Upon administration of methamphethamine (5 mg/kg, i.p.) to the rats having the lesioned nigral dopaminergic nerve cells, they began rotational movement toward the lesioned side.
After two weeks from the destruction by the administration of the drug, portions of the […] containing dopamine cells (i.e., substantial nigra and the tagmentum at the abdomen side) were cut from the brain of a fetal rat of 14 to 17 days of age, cut finely, and treated with trypsin. Then, the extracted tissues were incubated at 37° C. for 30 minutes, and the tissues were subjected to pipetting to form a suspension. Five microliters of the suspension was transplanted each into two sites of the caudate nucleus of the lesioned side (10 microliters in total, about 10^5 cells)
Compound No. 168 of the invention was administered in a dose of 156 mg/kg (i.p.) for 4 days from the day of transplantation, then with a suspension of 7 days, for 10 days in a dose of 50 mg/kg (i.p.) from the 11th day. Compound No. 296 was administered in a dose of 153 mg/kg, and then 50 mg/kg, in accordance with the same schedule.
Compound No. 3144 was also administered in accordance with the same schedule in a dose of 135 mg/kg, and then 45 mg/kg.
The rotational movements induced by administration of methamphetamine were examined 2 weeks and 1 week before, and 2 (or 3), 4, 6 and 8 weeks after, the transplantation and the administration of the drug. The number of rotational movements for the first one minute was counted at intervals of 10 minutes after the administration of methamphetamine, and the total number of rotational movements counted six times was averaged to find a mean number of the rotational movements.

Acute toxicity on mice = type: in vivo; settings: mouse, in vivo, ip, 24 hours after administration; read-out: Estimated LD50
Procedure: The acute toxicity of the compounds of the invention was examined by the following method.
Male ddy-strain 5-week old mice, 4-6- per group, were used as experimental animals. Each of the compounds was intraperitoneally (i.p.), and the toxicity of the compound was assessed 24 hours after the administration.

[5] = system: NS-20Y (mouse neuroblastoma cells); assay: Activity on NS-20Y cells: appearance of neurites; type: cell-based
Procedure, shortened: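 Mouse neuroblastoma NS-20Y cells were grown in polyornithine-coated dishes in DMEM with 10 % FCS, 100 units/ml penicillin G sodium and 100 micrograms/ml streptomycin sulfate, at 37° C under 5 % carbon dioxide, and exposed to compound. Cells were fixed with 4 % glutaraldehyde, stained with 0.05 % methylene blue, and the fraction bearing neurites at least twice the cell's long diameter was counted microscopically.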

[6] = system: rats with crushed sciatic nerves; assay: Weight of muscle extensor digitorum longus in rats with crushed sciatic nerves; type: in vivo, rat (male Wistar); settings: thirty days after operation, mean ± S.D.
Procedure: as §1, §2, §3
It is known that removal of a nerve or its disorder causes atorphy of the muscle which is under its control, and the atrophy is gradually cured by re-control by the nerve. For this reason, a change in the weight of the muscle, which is quantitative, was selected as an index. Thirty days after the operation, the muscles extensor digitorum longus of both hind paws which are muscles under the control of sciatic nerves were extracted under anesthesia, and their weights were measured. The ratio of the weight of the muscle extensor digitorum longus on the crushed side to that of normal side was calculated and expressed in percentage (%).

[7] = 3 W after transplantation, i.p. 168: 156 then 50, 296: 153 then 50, 3144: 135 then 45 mg/kg
[8] = 4 W after transplantation, i.p. 168: 156 then 50, 296: 153 then 50, 3144: 135 then 45 mg/kg
[9] = 6 W after transplantation, i.p. 168: 156 then 50, 296: 153 then 50, 3144: 135 then 45 mg/kg
[10] = 8 W after transplantation, i.p. 168: 156 then 50, 296: 153 then 50, 3144: 135 then 45 mg/kg
[11] = -1 W (before transplantation and drug)
[12] = Table 14, 30 mg/kg i.p. once a day, 30 days, mean ± S.D., 168: *3 p < 0.01, 296: *2 p < 0.05

| Compound | Number of cells having neurites with a length at least two times the diameter of each cell/total number of cells ([1]; 0.1 mM) | Number of cells having neurites with a length at least two times the diameter of each cell/total number of cells ([1]; 0.3 mM) | mean number of the rotational movements [4, 7] | mean number of the rotational movements [4, 8] | mean number of the rotational movements [4, 9] | mean number of the rotational movements [4, 10] | mean number of the rotational movements [4, 11] | LD50 at 24 h (Acute toxicity on mice) | Number of cells in which neurites appeared/total number of cells ([5]; 24 hours, 0.1 mM) | Number of cells in which neurites appeared/total number of cells ([5]; 48 hours, 0.1 mM) | Twitch tension left/right [2, 12] | Weight of muscle extensor digitorum longus left/right ([6]; 30 mg/kg, *2 p < 0.05) | other results |
| --- | --- | --- | --- | --- | --- | --- | --- | --- | --- | --- | --- | --- | --- |
| CN1C(=O)Cc2cnc(N3CCN(C(c4ccccc4)c4ccc(Cl)cc4)CC3)nc21 (stereo not shown) [Compound 3144] | 34.1 ± 3.8% | 44.5 ± 9.7% | 7.7 ± 4.7 | 4.0 ± 5.6 | 0.2 ± 2.2 | 1.1 ± 4.1 | 14.1 ± 4.7 | 500 to 1000 mg/kg |  |  |  |  | Number of cells having neurites with a length at least two times the diameter of each cell/total number of cells ([1]; 0.03 mM): 20.8 ± 4.7%; Number of cells having neurites with a length at least two times the diameter of each cell/total number of cells ([1]; 1 mM): 32.2 ± 1.6%; Twitch tension left/right ([2]; Table 15, 30 mg/kg, 18th days): 54.5 ± 17.1%; Twitch tension left/right ([2]; Table 15, 30 mg/kg, 23rd days): 57.9 ± 15.5%; Recovery of the interdigit distance ([3]; 18th days): 72.7 ± 14.0%; Recovery of the interdigit distance ([3]; 23rd days): 83.8 ± 12.2% |
| CN(C(=O)c1ccco1)c1ccnc(N2CCC(c3ccccc3)CC2)n1 [Compound 296] | 44.4 ± 5.5% | 22.4 ± 3.0% | 8.4 ± 5.0 | 3.1 ± 3.4 | 0.9 ± 2.3 | 1.0 ± 1.5 | 13.2 ± 4.1 | > 1000 mg/kg | 9/49 | 2/50 | 48.1 ± 9.4% | 56.9 ± 9.7% |  |
| CN(C(=O)c1ccccc1)c1ccnc(N2CCC(c3ccccc3)CC2)n1 [Compound 168, 4-(N-methylbenzamino)-2-(4-phenylpiperidino)pyrimidine p-toluenesulfonate] | 35.7 ± 0.8% | 14.6 ± 4.3% | 9.1 ± 5.6 | 4.5 ± 4.5 | 1.5 ± 3.9 | 0.8 ± 2.1 | 13.3 ± 7.8 | > 1000 mg/kg | 26/50 | 20/55 | 51.2 ± 13.6% | 59.4 ± 11.8% | Number of cells having neurites with a length at least two times the diameter of each cell/total number of cells ([1]; 0.05 mM): 23.8 ± 2%; Number of cells having neurites with a length at least two times the diameter of each cell/total number of cells ([1]; 0.2 mM): 24.4 ± 6.9%; Number of cells in which neurites appeared/total number of cells ([5]; 24 hours, 0.25 mM): 12/50; Twitch tension left/right ([2]; Table 14, 10 mg/kg i.p. once a day, 30 days, mean ± S.D., *2 p < 0.05): 48.4 ± 11.8%; Weight of muscle extensor digitorum longus left/right ([6]; 10 mg/kg): 52.1 ± 5.4% |
